IC50 data for 16 compounds are collected here from US20090304692A1, “TRIAZINE COMPOUNDS AS PI3 KINASE AND MTOR INHIBITORS” (Wyeth, priority 2008, published 2009).

The target of assay [1] is PI3K-γ (Homo sapiens, UniProt P48736). As to the kind of experiment: PI3K-gamma fluorescence polarization assay. To be noted: read-out: IC50 PI3Kγ.
In assay [2] the test system is human breast MDA-MB-361 tumor cell line. In words: In vitro cell culture growth assay (MTS), MDA-MB-361. To be noted: Homo sapiens, MDA-MB-361, 72 h. It is filed as cell-based.
Assay [3] has as its target Human mTOR (FLAG-TOR) (Homo sapiens, UniProt P42345). In words: mTOR kinase assay (DELFIA format, purified enzyme). It is filed as biochemical.
Assay [4] addresses PI3K-α (Homo sapiens, UniProt P42336). In words: PI3K-alpha fluorescence polarization assay. As to conditions: read-out: IC50 PI3Kα.
In assay [5] the test system is human prostate PC3-mm2 tumor cell line. As to the kind of experiment: In vitro cell culture growth assay (MTS), PC3-mm2. The class given is cell-based. To be noted: Homo sapiens, PC3MM2, 72 h.
Where [6] appears, read: MTS cell growth assay, three days after drug treatment, read-out: IC50 MDA-MB-361.
[7] abbreviates: MTS cell growth assay, three days after drug treatment, read-out: IC50 PC3-mm2.
The mark [8] stands for this setting: read-out: IC50 MDA-MB-361, MTS cell growth assay, three days after drug treatment.
Setting [9] is: read-out: IC50 PC3-mm2, MTS cell growth assay, three days after drug treatment.

Values joined by “and” are separate entries in the source; they are usually repeats but may differ in a detail not shown here. Equal entries are not always repeated. Structures can show the parent of a compound that is named as a salt. Where two headings read alike, the source gives them in different places. Where only a bound is given, the exact number is not on record here.

Sequence of PI3K-α (P42336 whole entry, species assumed): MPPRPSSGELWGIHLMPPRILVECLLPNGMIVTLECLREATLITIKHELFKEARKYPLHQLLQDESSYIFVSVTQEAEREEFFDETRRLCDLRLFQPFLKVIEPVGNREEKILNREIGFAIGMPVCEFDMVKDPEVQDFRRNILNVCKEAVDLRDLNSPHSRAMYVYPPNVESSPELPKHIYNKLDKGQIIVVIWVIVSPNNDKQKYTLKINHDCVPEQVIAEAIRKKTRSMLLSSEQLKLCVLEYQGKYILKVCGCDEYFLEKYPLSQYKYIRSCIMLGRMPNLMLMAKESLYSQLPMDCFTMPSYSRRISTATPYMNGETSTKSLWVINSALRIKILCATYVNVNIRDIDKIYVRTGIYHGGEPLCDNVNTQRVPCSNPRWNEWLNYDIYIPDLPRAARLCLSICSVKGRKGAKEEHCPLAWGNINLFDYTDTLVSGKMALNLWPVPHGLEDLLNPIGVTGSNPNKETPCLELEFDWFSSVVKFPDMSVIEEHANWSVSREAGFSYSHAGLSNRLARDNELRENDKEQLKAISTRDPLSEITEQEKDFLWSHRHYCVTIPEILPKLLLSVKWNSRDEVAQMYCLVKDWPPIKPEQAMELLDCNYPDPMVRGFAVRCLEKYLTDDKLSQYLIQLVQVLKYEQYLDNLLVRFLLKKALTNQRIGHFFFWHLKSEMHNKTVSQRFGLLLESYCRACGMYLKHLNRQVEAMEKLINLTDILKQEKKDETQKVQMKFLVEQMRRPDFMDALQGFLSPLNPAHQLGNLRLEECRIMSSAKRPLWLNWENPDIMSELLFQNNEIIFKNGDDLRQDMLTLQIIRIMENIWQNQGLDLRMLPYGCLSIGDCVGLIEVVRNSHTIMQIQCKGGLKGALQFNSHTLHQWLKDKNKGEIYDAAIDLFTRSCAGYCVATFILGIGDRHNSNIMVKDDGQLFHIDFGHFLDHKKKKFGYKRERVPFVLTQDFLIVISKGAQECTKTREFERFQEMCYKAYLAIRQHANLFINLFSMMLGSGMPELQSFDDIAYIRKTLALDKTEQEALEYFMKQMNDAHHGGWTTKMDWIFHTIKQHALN
Sequence of PI3K-α (P27986 whole entry partner, species assumed): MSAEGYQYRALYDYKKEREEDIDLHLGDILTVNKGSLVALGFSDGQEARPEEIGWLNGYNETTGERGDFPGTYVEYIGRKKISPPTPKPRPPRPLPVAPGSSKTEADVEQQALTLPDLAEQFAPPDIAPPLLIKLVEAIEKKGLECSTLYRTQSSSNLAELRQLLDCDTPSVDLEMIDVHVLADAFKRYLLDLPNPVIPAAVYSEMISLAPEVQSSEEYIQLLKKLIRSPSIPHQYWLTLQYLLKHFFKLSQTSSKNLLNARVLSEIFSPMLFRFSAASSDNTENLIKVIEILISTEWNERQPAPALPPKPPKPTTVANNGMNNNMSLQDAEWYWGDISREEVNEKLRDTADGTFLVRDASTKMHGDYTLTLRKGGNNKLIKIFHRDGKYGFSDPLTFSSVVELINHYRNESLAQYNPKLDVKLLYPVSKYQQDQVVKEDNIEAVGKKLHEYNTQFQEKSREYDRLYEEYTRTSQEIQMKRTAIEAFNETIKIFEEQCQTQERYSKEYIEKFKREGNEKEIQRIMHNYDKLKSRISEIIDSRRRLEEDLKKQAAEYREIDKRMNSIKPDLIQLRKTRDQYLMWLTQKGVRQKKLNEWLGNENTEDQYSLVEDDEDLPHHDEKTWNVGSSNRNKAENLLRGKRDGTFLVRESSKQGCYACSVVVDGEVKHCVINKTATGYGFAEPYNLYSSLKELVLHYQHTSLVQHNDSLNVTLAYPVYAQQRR
Sequence of PI3K-γ (P48736 whole entry, species assumed): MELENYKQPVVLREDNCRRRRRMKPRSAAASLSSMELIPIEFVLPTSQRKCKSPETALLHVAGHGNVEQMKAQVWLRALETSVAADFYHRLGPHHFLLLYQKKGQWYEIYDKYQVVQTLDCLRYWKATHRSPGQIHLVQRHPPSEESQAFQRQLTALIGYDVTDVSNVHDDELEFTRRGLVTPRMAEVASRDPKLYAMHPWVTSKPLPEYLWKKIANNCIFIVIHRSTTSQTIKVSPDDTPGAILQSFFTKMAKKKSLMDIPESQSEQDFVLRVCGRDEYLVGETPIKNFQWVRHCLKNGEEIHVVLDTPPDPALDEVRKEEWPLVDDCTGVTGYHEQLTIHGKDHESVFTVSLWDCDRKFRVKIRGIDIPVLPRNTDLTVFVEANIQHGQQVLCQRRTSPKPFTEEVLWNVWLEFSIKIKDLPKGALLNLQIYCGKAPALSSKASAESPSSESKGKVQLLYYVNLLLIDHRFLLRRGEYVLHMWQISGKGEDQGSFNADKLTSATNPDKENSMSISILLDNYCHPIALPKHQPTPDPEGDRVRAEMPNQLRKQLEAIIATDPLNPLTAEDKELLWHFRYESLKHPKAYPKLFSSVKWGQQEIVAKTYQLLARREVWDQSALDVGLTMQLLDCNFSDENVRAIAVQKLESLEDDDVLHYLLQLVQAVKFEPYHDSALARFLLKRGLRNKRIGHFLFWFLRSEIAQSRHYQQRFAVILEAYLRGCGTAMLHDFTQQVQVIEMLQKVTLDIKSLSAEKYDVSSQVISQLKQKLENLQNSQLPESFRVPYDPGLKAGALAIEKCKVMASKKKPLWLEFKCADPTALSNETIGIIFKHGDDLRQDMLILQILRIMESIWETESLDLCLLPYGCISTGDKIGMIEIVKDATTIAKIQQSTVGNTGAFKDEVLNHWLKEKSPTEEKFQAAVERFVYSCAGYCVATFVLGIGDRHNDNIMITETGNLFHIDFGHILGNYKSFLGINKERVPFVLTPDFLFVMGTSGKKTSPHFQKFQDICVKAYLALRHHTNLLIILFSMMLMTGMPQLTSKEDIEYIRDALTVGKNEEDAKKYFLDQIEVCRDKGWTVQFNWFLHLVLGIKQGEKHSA
Sequence of Human mTOR (FLAG-TOR) (P42345 1360-2549 limits assumed): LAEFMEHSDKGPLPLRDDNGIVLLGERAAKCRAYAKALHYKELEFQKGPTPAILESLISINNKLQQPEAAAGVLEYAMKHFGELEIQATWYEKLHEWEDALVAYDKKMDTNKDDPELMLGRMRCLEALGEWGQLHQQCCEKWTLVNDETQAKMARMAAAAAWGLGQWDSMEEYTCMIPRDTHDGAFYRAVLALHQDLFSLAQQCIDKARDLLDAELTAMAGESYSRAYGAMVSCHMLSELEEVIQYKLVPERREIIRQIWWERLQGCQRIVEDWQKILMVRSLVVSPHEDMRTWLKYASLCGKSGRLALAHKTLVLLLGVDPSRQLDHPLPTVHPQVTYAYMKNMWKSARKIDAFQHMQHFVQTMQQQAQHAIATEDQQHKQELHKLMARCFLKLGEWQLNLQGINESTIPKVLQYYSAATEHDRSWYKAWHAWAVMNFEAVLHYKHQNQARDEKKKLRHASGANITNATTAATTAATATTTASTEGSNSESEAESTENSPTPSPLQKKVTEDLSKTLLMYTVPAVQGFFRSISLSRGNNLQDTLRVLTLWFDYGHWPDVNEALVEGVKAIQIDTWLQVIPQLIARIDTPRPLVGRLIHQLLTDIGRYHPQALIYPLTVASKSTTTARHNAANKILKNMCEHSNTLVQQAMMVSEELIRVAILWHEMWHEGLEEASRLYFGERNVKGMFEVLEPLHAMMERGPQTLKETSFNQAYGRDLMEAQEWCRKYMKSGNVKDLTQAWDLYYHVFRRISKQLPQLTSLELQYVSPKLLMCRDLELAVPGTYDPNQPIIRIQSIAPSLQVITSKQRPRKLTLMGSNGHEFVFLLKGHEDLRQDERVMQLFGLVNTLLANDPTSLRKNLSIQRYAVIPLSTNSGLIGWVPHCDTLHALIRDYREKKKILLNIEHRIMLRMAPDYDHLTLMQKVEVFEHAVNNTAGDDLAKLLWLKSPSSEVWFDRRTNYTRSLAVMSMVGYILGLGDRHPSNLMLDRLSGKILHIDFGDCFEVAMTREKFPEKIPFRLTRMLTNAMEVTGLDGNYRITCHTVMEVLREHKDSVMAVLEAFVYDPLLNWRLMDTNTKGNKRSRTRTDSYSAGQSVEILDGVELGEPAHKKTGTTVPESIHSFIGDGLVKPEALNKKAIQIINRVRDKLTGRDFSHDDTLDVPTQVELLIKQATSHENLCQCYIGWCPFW

With `O=C(Nc1ccc(CO)cc1)Nc1ccc(-c2nc(N3CCOCC3)nc(N3CCOCC3)n2)cc1` [Example 51, 1-[4-(4,6-dimorpholin-4-yl-1,3,5-triazin-2-yl)phenyl]-3-[4-(hydroxymethyl)phenyl]urea], the IC50 in assay [1] is 15 nM; in assay [2] (setting [6]) it was less than 30 nM; in assay [3] (read-out: IC50 mTOR) it was 1.9 nM; in assay [4], 1 nM; in assay [5] (setting [7]) it was less than 30 nM.

For `O=C(Nc1ccc(-c2nc(N3CCOCC3)nc(N3CCOCC3)n2)cc1)Nc1ccc(C(F)(F)F)cc1` [Example 53, 1-[4-(4,6-dimorpholin-4-yl-1,3,5-triazin-2-yl)phenyl]-3-[4-(trifluoromethyl)phenyl]urea], the IC50 in assay [1] was 403 nM; in assay [2] (setting [6]) it was 662 nM; in assay [3] (read-out: IC50 mTOR) it was 24 nM and 18 nM; in assay [4] it was 45 nM; in assay [5] (setting [7]), 987 nM.

As to `O=C(Nc1ccc(O)cc1)Nc1ccc(-c2nc(N3CCOCC3)nc(N3CCOCC3)n2)cc1` [Example 54, 1-[4-(4,6-dimorpholin-4-yl-1,3,5-triazin-2-yl)phenyl]-3-(4-hydroxyphenyl)urea], the IC50 in assay [1] stood at 88 nM; in assay [2] (setting [6]), 133 nM; in assay [3] (read-out: IC50 mTOR), 4.75 nM; in assay [4], 10 nM; in assay [5] (setting [7]), 214 nM.

For the compound `CC(O)c1cccc(NC(=O)Nc2ccc(-c3nc(N4CCOCC4)nc(N4CCOCC4)n3)cc2)c1` (centres unmarked) [Example 57, 1-[4-(4,6-dimorpholin-4-yl-1,3,5-triazin-2-yl)phenyl]-3-[3-(1-hydroxyethyl)phenyl]urea], the IC50 in assay [1] worked out at 74 nM; in assay [2] (setting [6]) it was 119 nM; in assay [3] (read-out: IC50 mTOR), 16.5 nM; in assay [4], 8 nM; in assay [5] (setting [7]), 187 nM.

With `COC(=O)c1ccc(NC(=O)Nc2ccc(-c3nc(N4CCOCC4)nc(N4CCOCC4)n3)cc2)cc1` [Example 58, methyl 4-({[4-(4,6-dimorpholin-4-yl-1,3,5-triazin-2-yl)phenyl]carbamoyl}amino)benzoate], the IC50 in assay [1] amounted to 85 nM; in assay [2] (setting [8]), 115 nM; in assay [3] (read-out: IC50 mTOR), 2.5 nM; in assay [4], 13 nM; in assay [5] (setting [9]), 45 nM.

Consider `O=C(Nc1ccccc1)Nc1ccc(-c2nc(OC3CCOCC3)nc(N3CCOCC3)n2)cc1` [Example 60, 1-{4-[4-morpholin-4-yl-6-(tetrahydro-2H-pyran-4-yloxy)-1,3,5-triazin-2-yl]phenyl}-3-phenylurea], for which the IC50 in assay [1] turned out to be 36 nM; in assay [2] (setting [6]) it was 83 nM; in assay [3] (read-out: IC50 mTOR), 1.8 nM; in assay [4], 5 nM; in assay [5] (setting [7]) it was 92 nM.

Take `O=C(Nc1ccc(-c2nc(OC3CCOCC3)nc(N3CCOCC3)n2)cc1)Nc1cccnc1` [Example 61, 1-{4-[4-morpholin-4-yl-6-(tetrahydro-2H-pyran-4-yloxy)-1,3,5-triazin-2-yl]phenyl}-3-pyridin-3-ylurea]: the IC50 came to 32 nM in assay [1]; 48 nM in assay [2] (setting [6]); 0.76 nM in assay [3] (read-out: IC50 mTOR); 9 nM in assay [4]; 23 nM in assay [5] (setting [7]).

As for `O=C(Nc1ccc(CO)cc1)Nc1ccc(-c2nc(OC3CCOCC3)nc(N3CCOCC3)n2)cc1` [Example 62, 1-[4-(hydroxymethyl)phenyl]-3-{4-[4-morpholin-4-yl-6-(tetrahydro-2H-pyran-4-yloxy)-1,3,5-triazin-2-yl]phenyl}urea], the half-maximal inhibitory concentration (IC50) in assay [1] is 24 nM; in assay [2] (setting [6]), 27 nM; in assay [3] (read-out: IC50 mTOR) it was 0.68 nM; in assay [4] it was 2 nM; in assay [5] (setting [7]), 34 nM.

For `Cc1cc(NC(=O)Nc2ccc(-c3nc(OC4CCOCC4)nc(N4CCOCC4)n3)cc2)ccn1` [Example 63, 1-(2-methylpyridin-4-yl)-3-{4-[4-morpholin-4-yl-6-(tetrahydro-2H-pyran-4-yloxy)-1,3,5-triazin-2-yl]phenyl}urea], the IC50 in assay [1] came out at 36 nM; in assay [2] (setting [6]) it was 69 nM; in assay [3] (read-out: IC50 mTOR), 1.95 nM; in assay [4], 5 nM; in assay [5] (setting [7]) it was 62 nM.

Regarding `CC(=O)c1cccc(NC(=O)Nc2ccc(-c3nc(OC4CCOCC4)nc(N4CCOCC4)n3)cc2)c1` [Example 65, 1-(3-acetylphenyl)-3-{4-[4-morpholin-4-yl-6-(tetrahydro-2H-pyran-4-yloxy)-1,3,5-triazin-2-yl]phenyl}urea], the 50% inhibitory concentration (IC50) in assay [1] turned out to be 83 nM; in assay [2] (setting [6]), 151 nM; in assay [3] (read-out: IC50 mTOR) it was 5.05 nM; in assay [4], 15 nM; in assay [5] (setting [7]) it was 267 nM.

Regarding `CN(C)c1ccc(NC(=O)Nc2ccc(-c3nc(OC4CCOCC4)nc(N4CCOCC4)n3)cc2)cc1` [Example 66, 1-[4-(dimethylamino)phenyl]-3-{4-[4-morpholin-4-yl-6-(tetrahydro-2H-pyran-4-yloxy)-1,3,5-triazin-2-yl]phenyl}urea], the IC50 in assay [1] is 30 nM; in assay [2] (setting [6]), 59 nM; in assay [3] (read-out: IC50 mTOR), 1.65 nM; in assay [4], 7 nM; in assay [5] (setting [7]), 66 nM.

As for `O=C(Nc1ccc(C(=O)O)cc1)Nc1ccc(-c2nc(N3CCOCC3)nc(N3CCOCC3)n2)cc1` [Example 67, 4-[3-{4-(4,6-dimorpholino-1,3,5-triazin-2-yl)phenyl}ureido]benzoic acid], the IC50 in assay [1] was determined as 48 nM; in assay [2] (setting [8]), 816 nM; in assay [3] (read-out: IC50 mTOR) it was 1.45 nM; in assay [4], 6 nM; in assay [5] (setting [9]) it was 28 nM.

Turning to `CN(C)CCNC(=O)c1ccc(NC(=O)Nc2ccc(-c3nc(N4CCOCC4)nc(N4CCOCC4)n3)cc2)cc1` [Example 68, N-(2-(dimethylamino)ethyl)-4-(3-(4-(4,6-dimorpholino-1,3,5-triazin-2-yl)phenyl)ureido)benzamide], the concentration for half-maximal inhibition (IC50) in assay [1] was 7 nM; in assay [2] (setting [6]) it was less than 3 nM; in assay [3] (read-out: IC50 mTOR), 0.57 nM; in assay [4] it was 0.3 nM; in assay [5] (setting [9]) it was 11 nM.

For the compound `CN1CCN(C(=O)c2ccc(NC(=O)Nc3ccc(-c4nc(N5CCOCC5)nc(N5CCOCC5)n4)cc3)cc2)CC1` [Example 69, 1-(4-(4,6-dimorpholino-1,3,5-triazin-2-yl)phenyl)-3-(4-(4-methylpiperazine-1-carbonyl)phenyl)urea hydrochloride], the IC50 is 8 nM in assay [1]; 10 nM in assay [2] (setting [6]); 0.85 nM in assay [3] (read-out: IC50 mTOR); 0.4 nM in assay [4]; 13 nM in assay [5] (setting [7]).

Regarding `CN(C)CCN(C)C(=O)c1ccc(NC(=O)Nc2ccc(-c3nc(N4CCOCC4)nc(N4CCOCC4)n3)cc2)cc1` [Example 71, N-(2-(dimethylamino)ethyl)-4-(3-(4-(4,6-dimorpholino-1,3,5-triazin-2-yl)phenyl)ureido)-N-methylbenzamide hydrochloride], the 50% inhibitory concentration (IC50) in assay [1] is 8 nM; in assay [2] (setting [6]), less than 9.8 nM; in assay [3] (IC50 mTOR), 0.67 nM; in assay [4] it was 0.4 nM; in assay [5] (setting [7]) it was 18.3 nM.

Turning to `O=C(Nc1ccc(C(=O)N2CCC(N3CCOCC3)CC2)cc1)Nc1ccc(-c2nc(N3CCOCC3)nc(N3CCOCC3)n2)cc1` [Example 72, 1-(4-(4,6-dimorpholino-1,3,5-triazin-2-yl)phenyl)-3-(4-(4-morpholinopiperidine-1-carbonyl)phenyl)urea], the IC50 in assay [1] is 19 nM; in assay [2] (setting [6]) it was 1 nM; in assay [3] (read-out: IC50 mTOR), 0.85 nM; in assay [4], 2 nM; in assay [5] (setting [7]), 13 nM.

As a reminder, the IC50 is the concentration at which inhibition is half-maximal.
